pIC50: −log10 of the molar value. Entries after “also recorded” stand apart in the source; their conditions may differ. Like-named read-outs stand apart in the source and are kept apart here. Some results are limits rather than exact numbers.

Data set [1] has as its system Ca9-22 cells (OSCC, gingival tissue). Kind of data set: MTT cytotoxicity assay, Ca9-22. Conditions: for TS (C/A) tumor-selectivity index: CC50 HGF / CC50 Ca9-22 (both gingival); for CC50: OSCC, 48 h, MTT, average of three determinations; for PSE (C/A^2)x100 potency-selectivity expression: HGF vs Ca9-22 (both gingival). It is filed as cell-based, human. A general note: Formazan colour is commonly taken as a measure of viable cells.
Procedure: (§2) The viable cell number was determined in triplicate by the MTT method, following the approach adopted in previous studies ([Nagai et al., 2018]; [Shi et al., 2018] ). Briefly, the cells were incubated for 2 h with 0.2 mg/mL of MTT, and the formed formazan was dissolved with 0.1 mL of DMSO to determine the relative viable cell number at 560 nm.
(§3) Cells were inoculated at 2×10^3 cells/0.1 ml in a 96-microwell plate. […] Cells were incubated further for 48 h and the relative viable cell number was then determined by the MTT method and expressed as the absorbance of the cell lysate at 560 nm, using a microplate reader (Infinite F50R; TECAN, Männedorf, Switzerland) [49, 50]. Control cells were treated with the same amounts of DMSO and the cell damage induced by DMSO was subtracted from that induced by test agents. The concentration of compound that reduced the viable cell number by 50% (CC50) was determined from the dose–response curve and the mean value of CC50 for each cell type was calculated from triplicate assays.
(§4) Human oral squamous cell carcinoma (OSCC) cell lines [Ca9-22 (derived from gingival tissue); and HSC-2, HSC-3, HSC-4 (derived from tongue)] were purchased from Riken Cell Bank (Tsukuba, Japan). All of these cells were cultured at 37°C in DMEM supplemented with 10% heat-inactivated fetal bovine serum, 100 units/ml, penicillin G and 100 µg/ml streptomycin sulfate under a humidified 5% CO2 atmosphere. Cell morphology was checked periodically under a light microscope (EVOS FL; Thermo Fisher Scientific, Waltham, MA, USA).

The subject of data set [2] is HSC-3 cells (OSCC, tongue). Kind of data set: MTT cytotoxicity assay, HSC-3. The settings on record: for CC50: OSCC, 48 h, MTT, average of three determinations; for increase of cytotoxicity against HSC-3 compared to MS4: relative to unsubstituted phenyl derivative MS4. It counts as cell-based, human.
Procedure: as §2, §3, §4
Data set [3] deals with HSC-4 cells (OSCC, tongue). Kind of data set: MTT cytotoxicity assay, HSC-4. It is filed as cell-based, human. The settings on record: average of three determinations.
Procedure: as §2, §3, §4
Data set [4] in a line: MTT cytotoxicity assay, HGF. The settings on record: human, human gingival fibroblasts (HGF), normal oral cells, average of three determinations. It counts as cell-based, human.
Procedure: as §2, §3, §4
Data set [5] is described as follows: MTT cytotoxicity assay, HPLF. It counts as cell-based, human. Conditions: female, human, normal oral cells, average of three determinations.
Procedure: as §2, §3
(§5) All of these cells were cultured at 37°C in DMEM supplemented with 10% heat-inactivated fetal bovine serum, 100 units/ml, penicillin G and 100 µg/ml streptomycin sulfate under a humidified 5% CO2 atmosphere.
Data set [6] in a line: MTT cytotoxicity assay, HPC. It counts as cell-based, human. The settings on record: female, human, human pulp cells (HPC), normal oral cells, average of three determinations.
Procedure: as §2, §3, §5
Data set [7] concerns human OSCC cell lines (Ca9-22, HSC-2, HSC-3, HSC-4). Kind of data set: MTT cytotoxicity, four OSCC cell lines together (mean, TS, PSE, type of growth inhibition). It is filed as cell-based. Conditions: for CC50: mean of Ca9-22, HSC-2, HSC-3, HSC-4, read-out: CC50 OSCC mean (B); for type of growth inhibition on the OSCC cell lines: from dose-response curves, Figure 4, cytostatic = without complete cytotoxicity, cytotoxic = complete cell death; for TS (D/B) tumor-selectivity index: mean CC50 normal cells / mean CC50 OSCC cell lines; for PSE (D/B^2)x100 potency-selectivity expression: three normal cell types vs four OSCC cell lines. The method, then: TS was calculated using the following equation: TS=mean CC50 against three normal oral cell types/mean CC50 against four OSCC cell lines (HGF, HPLF, HPC vs. Ca9-22, HSC-2, HSC-3, HSC-4). Since both Ca9-22 and HGF cells were derived from the gingival tissue, the relative sensitivity of these cells was also compared (as: CC50 against HGF/ CC50 against Ca9-22).
PSE was calculated by the following equation: PSE=mean CC50 against three normal oral cell types/(CC50 against four OSCC cell lines)2 × 100 (HGF, HPLF, HPC vs. Ca9-22, HSC-2, HSC-3, HSC-4); and as CC50 against HGF/(CC50 against Ca9-22)2 × 100 using the pair of cell types from the same tissue (gingiva) (see Table 1).
(§1) Estimation of CC50 values. […] The mean pCC50 values for normal cells and tumor cell lines were defined as N and T, respectively.

A short description of data set [8]: MTT cytotoxicity, three normal oral cell types together (mean). It is filed as cell-based, human. Conditions: female, human; mean of HGF, HPLF, HPC; read-out: CC50 normal oral cells mean (D).
Text: as §1

The test system of data set [9] is HSC-2 cells. Put plainly: Cell-cycle analysis (propidium iodide, cell sorting). It counts as cell-based, human. Conditions: HSC-2, 24 h; for subG1 cell population: control 1.9 %; for share of S-phase cells: control 15.6%; for share of G2+M phase cells: control 20.5%. On the procedure:
Cell-cycle analysis was performed following the process described in the literature ([Kantoh et al., 2010]; [Nagai et al., 2018]; [Shi et al., 2018]), details of which are presented in a supplementary file. Briefly, cells (approximately 10^6 in number) were fixed with paraformaldehyde in PBS(−) and treated with RNase A. After staining with propidium iodide in the presence of 0.01% Nonidet-40 to prevent cell aggregation, the cells were filtered through Falcon cell strainers and then subjected to cell sorting, analyzed with Cell Sorter Software (version 2.1.2) (SONY Imaging Products and Solution Inc., Kanagawa, Japan).
HSC-2 cells were incubated for 24 h with actinomycin D (Act.D) (positive control of apoptosis induction) or MS4, 7, or 8, or without treatment (control), and subjected to cell cycle analysis. […] D (1 μM) (p < 0.05) from 1.9 % to 12.5%. […] The cell cycle analysis was performed only with HSC-2 cells; therefore, experiments with other OSCC cell lines should be conducted to support the generalization of our findings.
Treated and untreated cells (approximately 10^6 cells) were harvested, fixed with 1% paraformaldehyde in PBS without calcium and magnesium ions [PBS(−)]. Fixed cells were then washed twice with PBS(−) and treated for 30 min with 400 μl of 0.2 mg/ml RNase A (preheated for 10 min at 100 °C to inactivate DNase) to degrade RNA. Cells were then washed twice with PBS(−) and stained for 15 min with 0.01% propidium iodide (PI) in the presence of 0.01% NP-40 in PBS(−) to prevent cell aggregation. After filtering through Falcon® cell strainers ([…]) (Corning, NY, USA) to remove aggregated cells, PI-stained cells were subjected to cell sorting (SH800 Series; SONY Imaging Products and Solutions Inc., Kanagawa, Japan). Cell-cycle analysis was performed with Cell Sorter Software version 2.1.2. (SONY Imaging Products and Solution Inc.).

The subject of data set [10] is HSC-2 cells (OSCC, tongue). Kind of data set: MTT cytotoxicity assay, HSC-2. The settings on record: for CC50: read-out: CC50 HSC-2; for relative cytotoxicity against HSC-2: from CC50 values 1.1, 2.8, 3.6 μM.
Procedure: as §2, §3, §4
Data set [11] concerns HeLa cells. Also noted: method as in El-Awady et al., 2011. The settings on record: most resistant of five cancer cell lines; ref El-Awady et al., 2011; cited from earlier work.
Data set [12] relates to U251 cells. Also noted: method as in El-Awady et al., 2011. Conditions: most sensitive of five cancer cell lines; ref El-Awady et al., 2011; cited from earlier work.
Data set [13] deals with gingival fibroblast (HGF), normal oral cells. Put plainly: MTT cytotoxicity assay, HGF. It is filed as cell-based, human. Conditions: 48 h, average of three determinations.
Procedure: as §2, §3, §4
The test system of data set [14] is periodontal ligament fibroblast (HPLF), normal oral cells. Kind of data set: MTT cytotoxicity assay, HPLF. It counts as cell-based, human. Conditions: 48 h, average of three determinations.
Procedure: as §2, §3, §5
The test system of data set [15] is pulp cells (HPC), normal oral cells. Put plainly: MTT cytotoxicity assay, HPC. It is filed as cell-based, human. The settings on record: 48 h, average of three determinations.
Procedure: as §2, §3, §5
For data set [16], the system named is human normal oral cells (HGF, HPLF, HPC). Put plainly: MTT cytotoxicity, three normal oral cell types together (mean). It counts as cell-based. The settings on record: mean of HGF, read-out: CC50 normal oral cells mean (D).
Text: as §1

Regarding `COc1cc(OC)c(C(=O)/C=C/c2cn(-c3ccc(S(N)(=O)=O)cc3)nc2-c2ccccc2)cc1OC` [MS7, (E)-4-(4-(3-Oxo-3-(2,4,5-trimethoxyphenyl)prop-1-en-1-yl)-3-phenyl-1H-pyrazol-1-yl)benzenesulfonamide], the “TS (C/A) tumor-selectivity index” value in data set [1] is more than 247.4. The 50% cytotoxic concentration (CC50) was 1.6 µM in data set [1] (Homo sapiens, Ca9-22); 3.3 µM in data set [2] (Homo sapiens, HSC-3); 3 µM in data set [3] (Homo sapiens, HSC-4, 48 h); 2.7 µM in data set [7] (Homo sapiens); 2.8 µM in data set [10] (Homo sapiens, HSC-2, 48 h). For the same compound, the “times more cytotoxic towards Ca9-22 than 5-FU” value in [1] (relative to reference compound 5-FU) is reported as 20.6 times. Further, the “increase of cytotoxicity against HSC-3 compared to MS4” value in data set [2] is listed as 1.5–2 times. Besides, the cytotoxic concentration (CC50) at 48 h in [4], in [5], in [6] and in data set [8] was more than 400 µM each time. Moreover, the “type of growth inhibition on the OSCC cell lines” value (“type of growth inhibition” for short) in data set [7] is on record as “cytotoxic effects; also recorded: cytotoxic growth inhibition”. In addition, in data set [7], the “TS (D/B) tumor-selectivity index” value is given as more than 148.7. In [7], the “PSE (D/B^2)x100 potency-selectivity expression” value is reported as more than 5531. Moreover, the “effect on cell cycle distribution” value is “increased the cell population in the S and G2/M phases” in data set [9]; “induced G2+M arrest” in [9] (listed as 7). For the same compound, the figures for the subG1 cell population in [9] (5.6 μM) and in [9] (11.2 μM) were 1.0% and 1.3%, respectively. For the same compound, the “share of S-phase cells” value in data set [9] (concentration not given) is reported as 20.6%. The “share of G2+M phase cells” value in data set [9] (concentration not given) came out at 35.0%. In [9] (control 63.2%, concentration not given), this compound displayed a G1 phase cells of 44.5%. Further, in data set [10], the “relative cytotoxicity against HSC-2” value is recorded as 1.3 fold.
With `Cc1ccc(-c2cc(C(F)(F)F)nn2-c2ccc(S(N)(=O)=O)cc2)cc1` [celecoxib], the pIC50 is 4.43 in [11] and 4.93 in data set [12].
As for `COc1cc(C(=O)/C=C/c2cn(-c3ccc(S(N)(=O)=O)cc3)nc2-c2ccccc2)cc(OC)c1OC` [MS8, (E)-4-(4-(3-Oxo-3-(3,4,5-trimethoxyphenyl)prop-1-en-1-yl)-3-phenyl-1H-pyrazol-1-yl)benzenesulfonamide], the “TS (C/A) tumor-selectivity index” value in data set [1] is more than 169.0. In data set [1], the “PSE (C/A^2)x100 potency-selectivity expression” value is listed as more than 7141. In addition, the CC50 was 2.4 µM in [1] (Homo sapiens, Ca9-22); 4 µM in data set [2] (Homo sapiens, HSC-3); 3.5 µM in data set [3] (Homo sapiens, HSC-4, 48 h); 3.3 µM in data set [7] (Homo sapiens); 3.6 µM in data set [10] (Homo sapiens, HSC-2, 48 h). Besides, in data set [2], the “increase of cytotoxicity against HSC-3 compared to MS4” value is 1.5–2 times. In addition, the CC50 at 48 h in data set [4] was more than 400 µM; in data set [5] it was 340 µM; in data set [6], more than 400 µM; in [8] it was more than 380 µM. In addition, the “type of growth inhibition” value in data set [7] was “cytotoxic effects; also recorded: cytotoxic growth inhibition”. Further, in data set [7], the “TS (D/B) tumor-selectivity index” value is more than 113.5. For the same compound, the “PSE (D/B^2)x100 potency-selectivity expression” value in data set [7] is listed as more than 3389. In addition, the “effect on cell cycle distribution” value was “increased the cell population in the S and G2/M phases” in [9]; “induced G2+M arrest” in data set [9] (listed as 8). The same compound registered a subG1 cell population in data set [9] (7.2 μM) of 1.3%. Further, the “share of S-phase cells” value in data set [9] (concentration not given) came out at 21.2%. In addition, the “share of G2+M phase cells” value in [9] (concentration not given) stood at 35.4%.
As for `NS(=O)(=O)c1ccc(-n2cc(/C=C/C(=O)c3ccccc3)c(-c3ccccc3)n2)cc1` [MS4, (E)-4-(4-(3-Oxo-3-phenylprop-1-en-1-yl)-3-phenyl-1H-pyrazol-1 yl) benzenesulfonamide], the “TS (C/A) tumor-selectivity index” value in data set [1] was 71.2. In addition, the “PSE (C/A^2)x100 potency-selectivity expression” value in data set [1] was more than 1444. Moreover, the half-maximal cytotoxic concentration (CC50) in data set [1] was 4.9 µM; in [2], 5.2 µM; in [3] (48 h), 3.5 µM; in data set [13], 351 µM; in data set [14] it was more than 400 µM; in [15], more than 400 µM. Further, the CC50 in [7] is 3.7 µM; in data set [16], more than 384 µM; in [10] (OSCC, 48 h, MTT, average of three determinations), 1.1 µM. Besides, the “type of growth inhibition” value in [7] is “cytostatic effects; also recorded: cytostatic growth inhibition”. Also, the “TS (D/B) tumor-selectivity index” value in [7] is recorded as more than 103.7. The “PSE (D/B^2)x100 potency-selectivity expression” value in data set [7] is on record as more than 2800. Moreover, the “effect on cell cycle distribution” value in [9] was “increased the cell population in the S and G2/M phases; also recorded: only slightly induced such changes in cell cycle distribution; also recorded: induced G2+M arrest”. This compound registered a subG1 cell population in data set [9] (2.2 μM) of 2.0%. Moreover, in data set [10], the “relative cytotoxicity against HSC-2” value is given as 3.3 fold.

For orientation: CC50 means the concentration that lowers cell viability or growth by half. One may read the pIC50 as the IC50 on a negative log10 scale, so that one unit is a factor of ten.

Values taken from PMC12604929, “Tumor-specific cytotoxicity of pyrazole-based chalcone derivatives in human oral squamous cell carcinoma cell lines” (Turkish Journal of Biology, 2025).
